Test results: patent US10988523B2, “Modified lipidated Relaxin B chain peptides and their therapeutic use” (Sanofi, priority 2018, dated 2021)
*1 amine or outer side, *2 acyl side, *3 side chain or, on linkers, in order; H or OH if unused. Where a SMILES comes first, the peptide text is derived from it. Side-chain parts run from the residue outwards. [ ]: non-standard residue; d: D form. The star is where a group is joined. PEG12 = NCCOCCOCCOCCOCCOCCOCCOCCOCCOCCOCCOCCOCCC(=O)O; γGlu = O=C(O)[C@H](CCC(=O)[*:2])N[*:1]; 1Nal = N[C@@H](Cc1cccc2ccccc12)C(=O)O; Stearoyl = CCCCCCCCCCCCCCCCCC(=O)*; Palmitoyl = CCCCCCCCCCCCCCCC(=O)*; αMeK = C[C@](N)(CCCCN)C(=O)O; αMeS = C[C@](N)(CO)C(=O)O; Nle = CCCC[C@H](N)C(=O)O; Aib = CC(C)(N)C(=O)O

Experiments:
RXFP1 = target: T1, RXFP1 (Homo sapiens, UniProt Q9HBX9); test: OVCAR5 cAMP assay (HTRF), RXFP1 agonist activity; format: cell-based; conditions: for Emax: OVCAR-5, maximal cAMP relative to H2-relaxin maximum (100%), read-out: EMax, OVCAR 5 cells (cAMP); for EC50: OVCAR5 cells, cAMP HTRF, read-out: EC50 (nM), OVCAR 5 cells (cAMP)
T1 construct: OVCAR5 cells expressing endogenous RXFP1; endogenous in cells; host or cells: OVCAR5 cells
T1 sequence (Q9HBX9 1-757): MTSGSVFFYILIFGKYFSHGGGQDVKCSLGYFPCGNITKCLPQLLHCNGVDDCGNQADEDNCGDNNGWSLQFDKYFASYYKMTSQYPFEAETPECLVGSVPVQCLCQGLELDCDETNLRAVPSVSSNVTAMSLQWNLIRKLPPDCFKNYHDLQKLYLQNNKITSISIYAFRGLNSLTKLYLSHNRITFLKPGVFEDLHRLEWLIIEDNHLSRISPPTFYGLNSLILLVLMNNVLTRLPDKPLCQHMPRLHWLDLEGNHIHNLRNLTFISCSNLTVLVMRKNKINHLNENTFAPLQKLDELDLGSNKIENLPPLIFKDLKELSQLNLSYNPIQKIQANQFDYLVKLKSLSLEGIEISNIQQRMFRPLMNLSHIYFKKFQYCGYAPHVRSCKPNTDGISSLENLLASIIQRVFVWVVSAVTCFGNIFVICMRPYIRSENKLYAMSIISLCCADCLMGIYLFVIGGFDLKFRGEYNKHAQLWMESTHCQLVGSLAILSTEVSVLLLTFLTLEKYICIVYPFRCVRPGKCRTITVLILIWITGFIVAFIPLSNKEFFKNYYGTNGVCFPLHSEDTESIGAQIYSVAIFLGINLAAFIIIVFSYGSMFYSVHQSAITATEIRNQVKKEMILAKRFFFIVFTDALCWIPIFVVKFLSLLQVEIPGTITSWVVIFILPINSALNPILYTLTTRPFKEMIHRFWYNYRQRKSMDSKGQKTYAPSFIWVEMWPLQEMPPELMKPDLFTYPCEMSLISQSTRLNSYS
Outline: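 OVCAR5 cells (endogenous RXFP1) pretreated 40 min at 37° C with 1 mM IBMX, then exposed to peptides in serum-free medium for 30 min at 37° C. Lysate cAMP read by HTRF; EC50 from variable-slope sigmoidal fit; Emax as % of H2-relaxin maximal cAMP in same run.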

[1] = Pharmacokinetic (PK) determination after i.v. or s.c. administration to rats; format: in vivo, Sprague Dawley rats; conditions: Sprague Dawley, Rat PK; for C0 / half-life: iv, 1 mg/kg i.v.; for C0: extrapolated plasma concentration at t=0, read-out: C0; for half-life / Cmax / Tmax / bioavailability: plasma; for half-life: read-out: T½ (converted); for Cmax / Tmax: sc, 3 mg/kg s.c.; for bioavailability: subcutaneous, 3 mg/kg s.c. vs 1 mg/kg i.v., dose-corrected AUC ratio
Experimental: Prior to the testing of a peptide batch, its purity (HPLC-UV) was determined. Dose was corrected for presence of salts, solvent and purity.
Sprague Dawley rats were dosed with study peptide at a dose of 1 mg/kg intravenously (i.v.) or 3 mg/kg subcutaneously (s.c.) as a solution in PBS (0.2 mg/ml and 0.6 mg/ml respectively).
Plasma samples were analyzed after protein precipitation via liquid chromatography mass spectrometry (LC/MS).
PK parameters and half-life were calculated using Phoenix 64 (WinNonlin 6.4)-Pharsight (Certara™) (non-compartment model). Values below the limit of quantification (BLQ) were replaced by zero for subsequent calculations and PK analysis.
T½: in-vivo half life, time required for test compound plasma concentration to be divided by two during the PK experiment.
C0: Extrapolated test compound plasma concentration at t=0 time point (i.v. route).
Cmax: maximal test compound plasma concentration at the indicated time point (s.c. route).
Tmax: Time point where Cmax is attained.
F %: s.c. vs i.v. bioavailability, dose-corrected area under curve (AUC) s.c. route divided by AUC i.v.

SMILES: CCCCCCCCCCCCCCCCCC(=O)N[C@@H](CCC(=O)N[C@@H](CCC(=O)N[C@@H](CCC(=O)NCCCC[C@H](NC(=O)CCOCCOCCOCCOCCOCCOCCOCCOCCOCCOCCOCCOCCNC(=O)[C@H](CCCCNC(C)=O)NC(=O)[C@H](CCCCN)NC(=O)[C@H](CCCNC(=N)N)NC(=O)C(C)(C)NC(=O)[C@H](CO)NC(=O)[C@H](Cc1cccc2ccccc12)NC(=O)[C@@H](NC(=O)[C@H](CO)NC(=O)[C@H](CCCC)NC(=O)CNC(=O)[C@H](CCC(=O)O)NC(=O)C(C)(C)NC(=O)C(C)(C)NC(=O)[C@@H](NC(=O)[C@H](CCCCNC(C)=O)NC(=O)C(C)(C)NC(=O)[C@H](CCCNC(=N)N)NC(=O)[C@@H](NC(=O)[C@H](CCCCN)NC(=O)[C@H](CCC(=O)O)NC(=O)[C@H](CCCNC(=N)N)NC(=O)CNC(=O)[C@H](CCC(=O)O)NC(=O)[C@H](CC(C)C)NC(C)=O)C(C)C)[C@@H](C)CC)[C@@H](C)O)C(N)=O)C(=O)O)C(=O)O)C(=O)O [compound 37] (Ac-LEGREKVR[Aib]K(Ac)I[Aib][Aib]EG[Nle]ST[1Nal]S[Aib]RKK(Ac)[PEG12]K([γGlu-γGlu-γGlu-Stearoyl])-NH2)
- Emax (RXFP1): 83%
- C0 [1]: 5560 nM
- half-life [1]: 2.55 h
- Cmax [1]: 1710 nM
- Tmax [1]: 6 h
- bioavailability [1]: 40%

SMILES: CCCCCCCCCCCCCCCC(=O)N[C@@H](CCC(=O)N[C@@H](CCC(=O)N[C@@H](CCC(=O)NCCCC[C@H](NC(=O)CCOCCOCCOCCOCCOCCOCCOCCOCCOCCOCCOCCOCCNC(=O)[C@H](CCCCN)NC(=O)[C@H](CCCNC(=N)N)NC(=O)C(C)(C)NC(=O)[C@H](CO)NC(=O)[C@H](Cc1c[nH]c2ccccc12)NC(=O)[C@@H](NC(=O)[C@H](CO)NC(=O)[C@H](CCCC)NC(=O)CNC(=O)[C@H](CCC(=O)O)NC(=O)C(C)(C)NC(=O)C(C)(C)NC(=O)[C@@H](NC(=O)[C@H](CCCCNC(C)=O)NC(=O)[C@H](C)NC(=O)[C@H](CCCNC(=N)N)NC(=O)[C@@H](NC(=O)[C@H](CCCCN)NC(=O)[C@H](CCC(=O)O)NC(=O)[C@H](CCCNC(=N)N)NC(=O)CNC(=O)[C@H](CCC(=O)O)NC(=O)[C@H](CC(C)C)NC(C)=O)C(C)C)[C@@H](C)CC)[C@@H](C)O)C(N)=O)C(=O)O)C(=O)O)C(=O)O [compound 38] (Ac-LEGREKVRAK(Ac)I[Aib][Aib]EG[Nle]STWS[Aib]RK[PEG12]K([γGlu-γGlu-γGlu-Palmitoyl])-NH2)
- EC50 (RXFP1): 0.21 nM
- Emax (RXFP1): 89%
- C0 [1]: 4370 nM
- half-life [1]: 7.16 h
- Cmax [1]: 2500 nM
- Tmax [1]: 8 h
- bioavailability [1]: 79%

SMILES: CCCCCCCCCCCCCCCCCC(=O)N[C@@H](CCC(=O)N[C@@H](CCC(=O)N[C@@H](CCC(=O)N[C@@H](CCC(=O)NCCCC[C@H](NC(=O)CCOCCOCCOCCOCCOCCOCCOCCOCCOCCOCCOCCOCCNC(=O)[C@H](CCCCNC(C)=O)NC(=O)[C@H](CCCCN)NC(=O)[C@H](CCCNC(=N)N)NC(=O)[C@H](CCCCN)NC(=O)[C@](C)(CO)NC(=O)[C@H](Cc1c[nH]c2ccccc12)NC(=O)[C@@H](NC(=O)[C@H](CO)NC(=O)[C@H](CCCC)NC(=O)CNC(=O)[C@H](CCC(=O)O)NC(=O)C(C)(C)NC(=O)C(C)(C)NC(=O)[C@@H](NC(=O)[C@H](CCCCNC(C)=O)NC(=O)[C@H](C)NC(=O)[C@H](CCCNC(=N)N)NC(=O)[C@@H](NC(=O)[C@H](CCCCN)NC(=O)[C@H](CCC(=O)O)NC(=O)[C@H](CCCNC(=N)N)NC(=O)CNC(=O)[C@H](CCC(=O)O)NC(=O)[C@H](CC(C)C)NC(C)=O)C(C)C)[C@@H](C)CC)[C@@H](C)O)C(N)=O)C(=O)O)C(=O)O)C(=O)O)C(=O)O [compound 39] (Ac-LEGREKVRAK(Ac)I[Aib][Aib]EG[Nle]STW[αMeS]KRKK(Ac)[PEG12]K([γGlu-γGlu-γGlu-γGlu-Stearoyl])-NH2)
- EC50 (RXFP1): 0.03 nM
- Emax (RXFP1): 91%
- C0 [1]: 4100 nM
- half-life [1]: 3.7 h
- Cmax [1]: 1570 nM
- Tmax [1]: 8 h
- bioavailability [1]: 62%

SMILES: CCCCCCCCCCCCCCCCCC(=O)N[C@@H](CCC(=O)N[C@@H](CCC(=O)N[C@@H](CCC(=O)N[C@@H](CCC(=O)NCCCC[C@H](NC(=O)CCOCCOCCOCCOCCOCCOCCOCCOCCOCCOCCOCCOCCNC(=O)[C@H](CCCCNC(C)=O)NC(=O)[C@H](CCCCN)NC(=O)[C@H](CCCNC(=N)N)NC(=O)[C@](C)(CCCCN)NC(=O)[C@](C)(CO)NC(=O)[C@H](Cc1c[nH]c2ccccc12)NC(=O)[C@@H](NC(=O)[C@H](CO)NC(=O)[C@H](CCCC)NC(=O)CNC(=O)[C@H](CCC(=O)O)NC(=O)C(C)(C)NC(=O)C(C)(C)NC(=O)[C@@H](NC(=O)[C@H](CCCCNC(C)=O)NC(=O)[C@H](C)NC(=O)[C@H](CCCNC(=N)N)NC(=O)[C@@H](NC(=O)[C@H](CCCCN)NC(=O)[C@H](CCC(=O)O)NC(=O)[C@H](CCCNC(=N)N)NC(=O)CNC(=O)[C@H](CCC(=O)O)NC(=O)[C@H](CC(C)C)NC(C)=O)C(C)C)[C@@H](C)CC)[C@@H](C)O)C(N)=O)C(=O)O)C(=O)O)C(=O)O)C(=O)O [compound 40] (Ac-LEGREKVRAK(Ac)I[Aib][Aib]EG[Nle]STW[αMeS][αMeK]RKK(Ac)[PEG12]K([γGlu-γGlu-γGlu-γGlu-Stearoyl])-NH2)
- EC50 (RXFP1): 0.02 nM
- Emax (RXFP1): 90%
- C0 [1]: 7080 nM
- half-life [1]: 3.6 h
- Cmax [1]: 1540 nM
- Tmax [1]: 6 h
- bioavailability [1]: 66%

SMILES: CCCCCCCCCCCCCCCCCC(=O)N[C@@H](CCC(=O)N[C@@H](CCC(=O)N[C@@H](CCC(=O)N[C@@H](CCC(=O)NCCCC[C@H](NC(=O)CCOCCOCCOCCOCCOCCOCCOCCOCCOCCOCCOCCOCCNC(=O)[C@H](CCCCNC(C)=O)NC(=O)[C@H](CCCCN)NC(=O)[C@H](CCCNC(=N)N)NC(=O)[C@](C)(CCCCN)NC(=O)[C@H](CO)NC(=O)[C@H](Cc1c[nH]c2ccccc12)NC(=O)[C@@H](NC(=O)[C@H](CO)NC(=O)[C@H](CCCC)NC(=O)CNC(=O)[C@H](CCC(=O)O)NC(=O)C(C)(C)NC(=O)C(C)(C)NC(=O)[C@@H](NC(=O)[C@H](CCCCNC(C)=O)NC(=O)[C@H](C)NC(=O)[C@H](CCCNC(=N)N)NC(=O)[C@@H](NC(=O)[C@H](CCCCN)NC(=O)[C@H](CCC(=O)O)NC(=O)[C@H](CCCNC(=N)N)NC(=O)CNC(=O)[C@H](CCC(=O)O)NC(=O)[C@H](CC(C)C)NC(C)=O)C(C)C)[C@@H](C)CC)[C@@H](C)O)C(N)=O)C(=O)O)C(=O)O)C(=O)O)C(=O)O [compound 42] (Ac-LEGREKVRAK(Ac)I[Aib][Aib]EG[Nle]STWS[αMeK]RKK(Ac)[PEG12]K([γGlu-γGlu-γGlu-γGlu-Stearoyl])-NH2)
- EC50 (RXFP1): 0.01 nM
- Emax (RXFP1): 91%
- C0 [1]: 3000 nM
- half-life [1]: 3.7 h
- Cmax [1]: 2000 nM
- Tmax [1]: 5 h
- bioavailability [1]: 65%

SMILES: CCCCCCCCCCCCCCCCCC(=O)N[C@@H](CCC(=O)N[C@@H](CCC(=O)N[C@@H](CCC(=O)NCCCC[C@H](NC(=O)CCOCCOCCOCCOCCOCCOCCOCCOCCOCCOCCOCCOCCNC(=O)[C@H](CCCCN)NC(=O)[C@H](CCCNC(=N)N)NC(=O)C(C)(C)NC(=O)[C@H](CO)NC(=O)[C@H](Cc1cccc2ccccc12)NC(=O)[C@@H](NC(=O)[C@H](CO)NC(=O)[C@H](CCCC)NC(=O)CNC(=O)[C@H](CCC(=O)O)NC(=O)C(C)(C)NC(=O)C(C)(C)NC(=O)[C@@H](NC(=O)[C@H](CCCCNC(C)=O)NC(=O)[C@H](C)NC(=O)[C@H](CCCNC(=N)N)NC(=O)[C@@H](NC(=O)[C@H](CCCCN)NC(=O)[C@H](CCC(=O)O)NC(=O)[C@H](CCCNC(=N)N)NC(=O)CNC(=O)[C@H](CCC(=O)O)NC(=O)[C@H](CC(C)C)NC(C)=O)C(C)C)[C@@H](C)CC)[C@@H](C)O)C(N)=O)C(=O)O)C(=O)O)C(=O)O [compound 45] (Ac-LEGREKVRAK(Ac)I[Aib][Aib]EG[Nle]ST[1Nal]S[Aib]RK[PEG12]K([γGlu-γGlu-γGlu-Stearoyl])-NH2)
- Emax (RXFP1): 79%
- C0 [1]: 2900 nM
- half-life [1]: 2.88 h
- Cmax [1]: 2200 nM
- Tmax [1]: 7 h
- bioavailability [1]: 65%
